What was measured:
melatonin receptor [1] = experiment: Inhibition of 2-[125I]iodomelatonin binding to chicken retinal membranes; conditions: for IC50: read-out: IC50, inhibition of 2-[125I]iodomelatonin binding to chicken retinal membranes, 0° C., 5 hr, in the dark
Description: Dubocovich, et al., Proc. Nat'l.
The compounds to be tested were dissolved in 1 mM HCl with 0.1% bovine serum albumin. Binding was initiated by addition of 220-μl aliquots of retinal membranes resuspended in the Tris-HCl buffer to tubes containing 20 μl of test compound or vehicle, and radioligand. […] Reactions were terminated by addition of 5 ml of ice-cold Tris-HCl buffer, and the contents were immediately filtered through glass-fiber filters (Schleicher & Schuell no. 30) soaked in 0.5% (vol/vol) polyethylenimine solution. Each filter was washed twice with 5 ml of the cold buffer. Radioactivity was determined in a gamma counter.

melatonin receptor [2] = biological target: T1, melatonin receptor (Oryctolagus cuniculus, UniProt G1SUP2); conditions: cited from earlier work
T1 construct: Typically, the rabbit retina tissues preincubation with [^3 H]-dopamine for 10 minutes; from tissue; host or cells: rabbit retina (superfused retinal tissue)
T1 sequence (G1SUP2 1-362): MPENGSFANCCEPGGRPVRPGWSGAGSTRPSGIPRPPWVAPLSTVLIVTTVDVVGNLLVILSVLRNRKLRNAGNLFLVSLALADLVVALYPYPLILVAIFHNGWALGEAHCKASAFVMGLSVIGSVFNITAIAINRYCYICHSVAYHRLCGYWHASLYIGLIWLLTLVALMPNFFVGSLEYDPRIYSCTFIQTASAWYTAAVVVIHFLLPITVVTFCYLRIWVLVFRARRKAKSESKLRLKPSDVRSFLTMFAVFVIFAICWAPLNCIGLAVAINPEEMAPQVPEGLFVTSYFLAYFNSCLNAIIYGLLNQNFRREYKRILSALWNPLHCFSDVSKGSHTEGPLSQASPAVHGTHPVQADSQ

melatonin receptor [3] = biological target: T1, melatonin receptor; conditions: cited from earlier work; remark: listed apart in the source
melatonin receptor [4] = biological target: T1, melatonin receptor; experiment: Inhibition of calcium-dependent [3H]dopamine release from rabbit retina (melatonin agonist assay); assay type: cell-based; conditions: for inhibition at 1 µM: 1 μM concentration of test compound, read-out: % Maximal Inhibition of [3H]dopamine release; for IC50: compound added before S2, S-sulpiride 0.1 μM present
Description: Accordingly, all experiments were run in the presence of S-sulpiride (0.1 μM) to block D-2 dopamine autoreceptors present in the dopamine amacrine cells of retina.
Thus, the lower the IC50, the greater the agonistic activity.
Assays were performed as described in Dubocovich, J. Pharm. […] Retinal tissues are incubated for 10 min at 37° C. in the presence of 0.1 μM [^3 H]dopamine. The tissue was then washed in Krebs' solution at 37° C. and transferred to individual cylindrical plastic tubes having a thin nylon mesh on the bottom. These plastic tubes were then transferred to individual glass superfusion chambers containing platinum electrodes 30 mm apart. The tissue samples are superfused with Krebs' solution, starting at time equal zero until a leveling off of the spontaneous release of radioactivity occurred (about 60 mins). A time equal 60 mins S1 is applied.
Tritium release, i.e., release of [^3 H]dopamine, was elicited by field stimulation at 3 Hz, 20 mA, 2 msec duration. Field stimulations were applied in each experiment at either 60 (S1) or 100 (S2), min after the end of the incubation with [^3 H]dopamine. Samples of the superfusate were collected before, during, and after the period of stimulation. At the end of each experiment, the retinal tissue contained in each chamber was solubilized and the tritium content remaining in the retinal tissue was determined by liquid scintillaton counting. [drawing 8]
The inhibition of [^3 H]dopamine overflow (the percentage of total tissue radioactivity released by field stimulation above the spontaneous release levels, expressed as the ratio S2 /S1) is plotted as a function of the molar concentrations of the test compound (logarithmic scale).

melatonin receptor [5] = conditions: cited from earlier work
frog skin = conditions: cited from earlier work
melatonin receptor [6] = biological target: T1, melatonin receptor; experiment: Antagonism of melatonin-induced inhibition of [3H]dopamine release from rabbit retina; assay type: cell-based; conditions: for shift of the melatonin concentration effect curve: 0.1 μM and 1 μM of test compound, compared with melatonin alone
Description: In this example, the test compound is added before the first period of electrical stimulation (S1) and remains present until the end of the experiment.
Typically, the rabbit retina tissues preincubation with [^3 H]-dopamine for 10 minutes is followed by a superfusion with Krebs solution at time equal zero. At time equal 20 minutes the test compound of interest is added. At time equal 60 minutes S1 is applied.
The ratio S2 /S1 can be plotted as a function of the molar concentrations of the test compound used (logarithmic scale).

[7] = test compound 0.1 μM, melatonin 1 nM
[8] = test compound 0.1 μM, melatonin 10 nM
[9] = test compound 1 μM, melatonin 1 nM
[10] = test compound 1 μM, melatonin 10 nM

Structure (SMILES) | IC50 (melatonin receptor [1]) [nM] | inhibition at 1 µM (melatonin receptor [4]) [%] | IC50 (melatonin receptor [4]) [nM] | other results
COc1ccc2c(c1)CC(NC(C)=O)CC2 (stereo not shown) [AH 008, 7-methoxy-2-acetamido-tetralin] | > 10000 |  |  | 
CC(=O)NCCc1c(Cc2ccccc2)[nH]c2ccccc12 [Luzindole, 2-benzyl-N-acetyltryptamine] |  |  |  | antagonism of the ability of melatonin to inhibit [3H]dopamine release (melatonin receptor [2]): antagonize the ability of melatonin to inhibit [^3 H]dopamine release in a competitive fashion; effect on spontaneous outflow and calcium-dependent release of [3H]dopamine (melatonin receptor [3]; concentrations up to 10 μM, compound alone): does not modify
CCC(=O)NC1CCc2cccc(OC)c2C1 (stereo not shown) [AH 002, 8-methoxy-2-propionamidotetralin] |  |  |  | activity in competitively inhibiting the binding of 2-[125I]iodomelatonin to the melatonin binding site (in words) (melatonin receptor [1]): high activity
COc1cccc2c1CCC(NC(C)=O)C2 (stereo not shown) [AH 018, 5-methoxy-2-acetamido-tetralin] | 16000 |  |  | 
COc1cccc2c1CC(NC(=O)C1CC1)CC2 (stereo not shown) [AH 015, 8-methoxy-2-cyclopropanecarbonylamido-tetralin] | 2940 | 80 | 2.51 | melatonin agonist activity (in words) (melatonin receptor [4]): melatonin agonists
CC(=O)NCCc1c[nH]c2ccccc12 [N-acetyltryptamine] |  |  |  | melatonin receptor activity in chicken retina (in words) (melatonin receptor [5]): competitive melatonin receptor antagonist; melatonin receptor activity in rabbit retina (in words) (melatonin receptor [3]): partial melatonin agonist; effect on melatonin-induced lightening of α-MSH-induced darkening of frog skin (frog skin): antagonize the melatonin-induced lightening
COc1cccc2c1CC(NC(=O)CCl)CC2 (stereo not shown) [AH 017, 8-methoxy-2-chloroacetamidotetralin] |  | 75 | 0.063 | 
CCCC(=O)NC1CCc2ccccc2C1 (stereo not shown) [AH 020, 2-butyramido-tetralin] | 2910 |  |  | 
CC(=O)NC1CC(Cc2ccccc2)c2ccccc2C1=O (stereo not shown) [AH 028, 2-Acetamido-4-benzyl-1-tetralone] | 25000 | 60 | 16 | 
CCC(=O)NC1Cc2ccccc2C(c2ccccc2)C1 (stereo not shown) [AH 024, 4-phenyl-2-propionamido-tetralin] | 250 |  | > 1000 | activity in competitively inhibiting the binding of 2-[125I]iodomelatonin to the melatonin binding site (in words) (melatonin receptor [1]): high activity; antagonism of melatonin-induced inhibition of [3H]dopamine release (in words) (melatonin receptor [6]): antagonize the melatonin-induced inhibition of [^3 H]dopamine release; shift of the melatonin concentration effect curve (melatonin receptor [6]): shift to the right; S2/S1 (melatonin receptor [6]; test compound 0.1 μM, melatonin 0.1 nM): 1.01 ± 0.07; S2/S1 (melatonin receptor [6]; [7]): 0.76 ± 0.01; S2/S1 (melatonin receptor [6]; [8]): 0.25 ± 0.01; S2/S1 (melatonin receptor [6]; [9]): 0.91 ± 0.06; S2/S1 (melatonin receptor [6]; [10]): 0.61 ± 0.01
O=C(CCl)NC1CCc2ccccc2C1 (stereo not shown) [AH 011, 2-chloroacetamido-tetralin] |  | 80 | 1.3 | 
CCCC(=O)NC1CCc2cccc(OC)c2C1 (stereo not shown) [AH 013, 8-methoxy-2-n-butyramidotetralin] | 257 | 80 | 1.18 | activity in competitively inhibiting the binding of 2-[125I]iodomelatonin to the melatonin binding site (in words) (melatonin receptor [1]): high activity; melatonin agonist activity (in words) (melatonin receptor [4]): melatonin agonists
CC(=O)NC1CCc2ccccc2C1 (stereo not shown) [AH 005, 2-acetamidotetralin] | 20000 | 50 | 52.2 | 
COc1cccc2c1CC(NC(=O)C(C)C)CC2 (stereo not shown) [AH 014, 8-methoxy-2-iso-butyramido-tetralin] | 4620 | 80 | 7.94 | 
CC(=O)NC1Cc2ccccc2C(c2ccccc2)C1 (stereo not shown) [AH 023, 4-phenyl-2-acetamidotetralin] | 630 |  | > 1000 | activity in competitively inhibiting the binding of 2-[125I]iodomelatonin to the melatonin binding site (in words) (melatonin receptor [1]): high activity; antagonism of melatonin-induced inhibition of [3H]dopamine release (in words) (melatonin receptor [6]): antagonize the melatonin-induced inhibition of [^3 H]dopamine release; shift of the melatonin concentration effect curve (melatonin receptor [6]): shift to the right; S2/S1 (melatonin receptor [6]; test compound 0.01 μM, melatonin 0.1 nM): 0.69 ± 0.11; S2/S1 (melatonin receptor [6]; test compound 0.01 μM, melatonin 1 nM): 0.30 ± 0.04; S2/S1 (melatonin receptor [6]; [7]): 0.73 ± 0.04; S2/S1 (melatonin receptor [6]; [8]): 0.37 ± 0.06; S2/S1 (melatonin receptor [6]; test compound 1 μM, melatonin 0.1 nM): 1.02 ± 0.03; S2/S1 (melatonin receptor [6]; [9]): 0.92 ± 0.07; S2/S1 (melatonin receptor [6]; [10]): 0.69 ± 0.03
CC(=O)NC1Cc2ccccc2C(Cc2ccccc2)C1 (stereo not shown) [AH 025, 4-benzyl-2-acetamidotetralin] | 400 | 70 | 4 | activity in competitively inhibiting the binding of 2-[125I]iodomelatonin to the melatonin binding site (in words) (melatonin receptor [1]): high activity; melatonin agonist activity (in words) (melatonin receptor [4]): melatonin agonists
O=C(NC1CCc2ccccc2C1)c1ccccc1 (stereo not shown) [AH 019, 2-benzoylamido-tetralin] | > 10000 |  |  | 
O=C(CCl)NC1Cc2ccccc2C(c2ccccc2)C1 (stereo not shown) [AH 026, 4-phenyl-2-chloroacetamido-tetralin] |  |  | > 1000 | 
COc1cccc2c1CC(NC(=O)Cc1ccccc1)CC2 (stereo not shown) [AH 016, 8-methoxy-2-phenylacetamido-tetralin] |  | 0 | > 1000 | 
COc1cccc2c1CC(NC(=O)c1ccccc1)CC2 (stereo not shown) [AH 007, 8-methoxy-2-benzoylamido-tetralin] | > 10000 | 40 | 10 | 
O=C(CCl)NC1Cc2ccccc2C(Cc2ccccc2)C1 (stereo not shown) [AH 029, 4-benzyl-2-chloroacetamido-tetralin] |  | 70 | 10 | 
CCC(=O)NC1CCc2ccccc2C1 (stereo not shown) [AH 006, 2-propionamido-tetralin] | 13000 | 70 | 8.13 | 
CCC(=O)NC1Cc2ccccc2C(Cc2ccccc2)C1 (stereo not shown) [AH 027, 4-benzyl-2-propionamido-tetralin] | 790 | 65 | 13 | activity in competitively inhibiting the binding of 2-[125I]iodomelatonin to the melatonin binding site (in words) (melatonin receptor [1]): high activity; melatonin agonist activity (in words) (melatonin receptor [4]): melatonin agonists
COc1cccc2c1CC(NC(C)=O)CC2 (stereo not shown) [AH 001, 8-methoxy 2-acetamido-tetralin] |  |  |  | activity in competitively inhibiting the binding of 2-[125I]iodomelatonin to the melatonin binding site (in words) (melatonin receptor [1]): high activity

Reference: US5071875A (Northwestern University, priority 1989, dated 1991)
